Structures can show the parent of a compound that is named as a salt. Where two headings read alike, the source gives them in different places. Values belong to the compound of their own block, whether it stands above or below them.
Experiments:
[1] = tested on: AGE-BSA crosslinked to collagen; test: Cross-link Breaking Assay (sandwich enzyme immunoassay); type: biochemical; settings: for Breaking Anti-AGE: anti-AGE antibody; for Breaking Anti-BSA: anti-BSA antibody
Description: The present invention also involves a novel sandwich enzyme immunoassay used to ascertain the ability of test compounds to “break” or reverse already formed advanced glycosylation endproducts by detecting the breaking of AGE (Advanced glycosylation endproduct) moieties from AGE-crosslinked protein. This assay comprises: • a) incubation of AGE-modified bovine serum albumin (AGE BSA) on collagen-coated wells of microtiter plates for a period of 2–6 hours' at a temperature of 37° C.; • b) washing of the wells with PBS-Tween; • c) application of the test compounds to the washed wells of step b; • d) incubation of the test compounds applied to the washed wells for an additional 12–24 hours at a temperature of about 37° C.; and • e) detection of the AGE-breaking using an antibody raised against AGE-ribonuclease or cross-link breaking with an antibody against BSA.
In order to ascertain the ability of the compounds of the instant invention to “break” or reverse already formed advanced glycosylation endproducts, a novel sandwich enzyme immunoassay was developed which detects breaking of AGE (Advanced glycosylation endproduct) moieties from AGE-crosslinked protein. The assay utilizes collagen-coated 96 well microtiter plates that are obtained commercially. […] Following an incubation period of 16 hours (37° C.) cross-link-breaking is detected using an antibody raised against AGE-ribonuclease or with an antibody against BSA. […] Details of the assay are as follows:
Methods Preparation of Solutions and Buffers • 1. AGE-BSA stock solutions were prepared as follows. Sodium phosphate buffer (0.4 M) was prepared by dissolving 6 grams of monobasic sodium phosphate in 100 ml of distilled water, 7 grams of dibasic sodium phosphate (0.4 M) in 100 ml of distilled water and adjusting the pH of the dibasic solution to 7.4 with the monobasic solution. Sodium azide (0.02 grams) was added per 100 ml volume to inhibit bacterial growth. The BSA solution was prepared as follows: 400 mg of Type V BSA (bovine serum albumin) was added for each ml of sodium phosphate buffer (above). A 400 mM glucose solution was prepared by dissolving 7.2 grams of dextrose in 100 ml of sodium phosphate buffer (above). The BSA and glucose solutions were mixed 1:1 and incubated at 37° C. for 12 weeks. The pH of the incubation mixture was monitored weekly and adjusted to pH 7.4 if necessary. After 12 weeks, the AGE-BSA solution was dialyzed against PBS for 48 hours with four buffer changes, each at a 1:500 ratio of solution to dialysis buffer. Protein concentration was determined by the micro-Lowry method. The AGE-BSA stock solution was aliquoted and stored at −20° C. […] Working solutions for crosslinking and breaking studies were prepared as follows. Test compounds were dissolved in PBS and the pH was adjusted to pH 7.4 if necessary. AGE-BSA stock solution was diluted in PBS to measure maximum crosslinking and in the inhibitor solution for testing inhibitory activity of compounds. The concentration of AGE-BSA necessary to achieve the optimum sensitivity was determined by initial titration of each lot of AGE-BSA. • 3. Wash buffer (“PBS-Tween”) was, prepared as follows. PBS was prepared by dissolving the following salts in one liter of distilled water: NaCl, 8 grams; KC1, 0.2 gram, KH2PO4. […] Tween-20 was added to a final concentration of 0.05% (vol/vol). • 4. Substrates for detection of secondary antibody binding were prepared by diluting the HRP substrate buffer 1:10 in distilled water and mixing with ABTS chromogen 1:50 just prior to use. Assay Procedures • 1. Biocoat plates were blocked with 300 μl of “Superbloc”. Plates were blocked for one hour at room temperature and were washed with PBS-Tween three times with the Dynatech platewasher before addition of test reagents. • 2. Each experiment was set up in the following manner. The first three wells of the Biocoat plate were used for the reagent blank.

[2] = tested on: cross-linking of glycated bovine serum albumin (AGE-BSA) to rat tail tendon collagen; test: Cross-linking Inhibition Assay; settings: for IC50: inhibition of AGE-BSA cross-linking to collagen-coated plate
Description: The following method was used to evaluate the ability of the compounds of the present invention to inhibit the cross-linking of glycated bovine serum albumin (AGE-BSA) to the rat tail tendon collagen-coated 96-well plate.
The blocking solution was removed from the wells by, washing the plate twice with PBS-'Tween 20 solution (0.05% Tween 20) using a NUNq-multiprobe or Dynatech ELISA-plate washer. Cross-linking of AGE-BSA (1 to 10 mg per well depending on the batch of AGE-BSA) to rat tail tendon collagen coated plate was performed with and without the testing ‘compound dissolved in PBS buffer at pH 7.4 at the desired concentrations by the, addition of 50 μl each of the AGE-BSA diluted in PBS or in the solution of test compound at 37° C. for 4 hours. Unbrowned BSA in PBS buffer with or without testing compound were added to the separate wells as the blanks. The un-cross-linked AGE-BSA was then removed by washing the wells three times with PBS-Tween buffer. The amount of AGE-BSA cross-linked to the tail tendon collagen-coated plate was then quantitated using a polyclonal antibody raised against AGE-RNase. After a one-hour incubation period, AGE antibody was removed by washing 4 times with PBS-Tween.
The bound AGE antibody was then detected with the addition of horseradish peroxidase-conjugated secondary antibody—goat anti-rabbit immunoglobulin and incubation for 30 minutes. […] The reaction was allowed for an additional 15 minutes and the absorbance was read at 410 nm in a Dynatech plate reader.

[3] = detection with anti-AGE antibody, read-out: IC50 (mM) Anti-AGE
[4] = detection with anti-BSA antibody, read-out: IC50 (mM) Anti-BSA

- melting point: 198 to 200 °C
Compound: C#CC[n+]1csc(C)c1C.[Br-]

- melting point: 64 to 66 °C
Compound: C#CC[n+]1ccsc1.[Br-]

Compound: Cc1csc[n+]1CC(N)=O.[Br-] [3-(2-amino-2-oxoethyl)-4-methyl-thiazolium bromide]
- Breaking Anti-AGE ([1]; at 30 mM): 89%
- Breaking Anti-BSA ([1]; at 30 mM): 44%
- IC50 [1, 3]: 4.7 mM
- IC50 [1, 4]: 38.6 mM
- IC50 [2]: 700 µM

- melting point: 132 to 134 °C
Compound: C#CC[n+]1csc(CCO)c1C.[Br-]

- melting point: 222 to 223 °C
Compound: COC(=O)c1ccc(NC(=O)C[n+]2csc(CCO)c2C)cc1O (as salt: bromide) [3-(2-(4′-carbmethoxy-3′-hydroxyanilino)-2-oxoethyl]-4-methyl-5-(2′-hydroxyethyl)-thiazolium bromide]

- melting point: 208 to 209 °C
Compound: C=Cc1sc[n+](CC(=O)c2cc(C(C)(C)C)c(O)c(C(C)(C)C)c2)c1C (as salt: bromide) [3-(2-(3′,5′-tert-butyl-4′-hydroxyphenyl)-2-oxoethyl)-4-methyl-5-vinyl-thiazolium bromide]

- Breaking Anti-AGE ([1]; at 1 mM): 65%
- Breaking Anti-AGE ([1]; at 10 mM): 48%
- Breaking Anti-BSA ([1]; at 1 mM): 69%
- Breaking Anti-BSA ([1]; at 10 mM): 49%
- IC50 [1, 3]: 3 mM
- IC50 [2]: 780 µM
Compound: Cc1c[n+](CC(=O)c2cc(C(C)(C)C)c(O)c(C(C)(C)C)c2)cs1 [3-[2-(3′,5′-di-tert-butyl-4′-hydroxyphenyl)-2-oxoethyl)-5-methyl-thiazolium bromide]

Compound: Cc1c(CCO)sc[n+]1CC(=O)Nc1c(C(C)C)cccc1C(C)C.[Br-] [3-(2-(2′,6′-Diisopropylanilino)-2-oxoethyl]-4-methyl-5-(2′-hydroxyethyl)-thiazolium bromide]
- Breaking Anti-AGE ([1]; at 10 mM): 31%
- Breaking Anti-BSA ([1]; at 10 mM): 48%
- Relative Cross-link Inhibition (at 10 mM) [2]: 19%

Compound: COC(=O)C[n+]1csc(C)c1.[Br-] [3-(2-methoxy-2-oxoethyl)-5-methyl-thiazolium bromide]
- Breaking Anti-AGE ([1]; at 30 mM): 72%
- Breaking Anti-BSA ([1]; at 30 mM): 27%
- IC50 [2]: 3200 µM

Compound: Cc1c(CCO)sc[n+]1CC(N)=O.[Br-] [3-(2-amino-2-oxoethyl)-4-methyl-5-(2-hydroxyethyl) thiazolium bromide]
- Breaking Anti-AGE ([1]; concentration not given): 65%
- Breaking Anti-BSA ([1]; concentration not given): 57%
- IC50 [1, 3]: 0.012 mM
- IC50 [1, 4]: 0.12 mM
- IC50 [2]: 1420 µM

- IC50 [2]: 530 µM
Compound: NC(=O)C[n+]1ccsc1 [3-(2-amino-2-oxoethyl)thiazolium bromide, 3-(2-amino-2-oxoethyl)-thiazolium bromide]

- melting point: 127 to 129 °C
Compound: C#CC[n+]1csc(C)c1.[Br-]

- melting point: 213 to 215 °C
Compound: C#CC[n+]1cscc1C.[Br-]

Compound: COC(=O)C[n+]1csc2ccccc21.[Br-] [3-(2-methoxy-2-oxoethyl)-benzothiazolium bromide]
- Breaking Anti-AGE ([1]; at 30 mM): 66%
- Breaking Anti-BSA ([1]; at 30 mM): 37%
- IC50 [1, 3]: 1.2 mM
- IC50 [1, 4]: 25.9 mM
- IC50 [2]: > 10000 µM

Compound: CCOC(=O)c1ccc(NC(=O)C[n+]2csc(CCO)c2C)cc1.[Br-] [3-(2-4′-carbethoxyanilino)-2-oxoethyl]-4-methyl-5-(2′-hydroxyethyl)-thiazolium bromide]
- Breaking Anti-AGE ([1]; at 10 mM): 48%
- Breaking Anti-BSA ([1]; at 10 mM): 57%
- Relative Cross-link Inhibition [2]: 8.8% (1 mm)

Compound: Cc1csc[n+]1CC(=O)c1ccccc1.[Br-] [3-(2-phenyl-2-oxoethyl)-4-methylthiazolium bromide]
- Breaking Anti-AGE ([1]; at 30 mM): 68%
- Breaking Anti-BSA ([1]; at 30 mM): 66%
- IC50 [1, 3]: 0.23 mM
- IC50 [1, 4]: 0.3 mM
- IC50 [2]: 5600 µM

Compound: Cc1sc[n+](CC(=O)c2ccccc2)c1C.[Br-] [3-(2-phenyl-2-oxoethyl)-4,5-dimethylthiazolium bromide]
- Breaking Anti-AGE ([1]; at 30 mM): 56%/ND (30)
- Relative Cross-link Inhibition (at 10 mM) [2]: 37%

- Breaking Anti-AGE ([1]; at 10 mM): 56%
- Breaking Anti-BSA ([1]; at 10 mM): 38%
- IC50 [2]: 4500 µM
Compound: Cn1cc[n+](CC(=O)c2cc(C(C)(C)C)c(O)c(C(C)(C)C)c2)c1 [1-methyl-3-(2-(3′,5′-di-tert-butyl-4′-hydroxyphenyl)-2-oxoethyl]-imidazolium bromide]

- Breaking Anti-AGE ([1]; at 30 mM): 87%
- Breaking Anti-BSA ([1]; at 30 mM): 54%
- IC50 [2]: 74.9 µM
Compound: Nc1sc2ccccc2[n+]1N [2,3-diaminio-benzothiazolium mesitylenesulfonate]

- melting point: 186 to 187 °C
Compound: Cc1c(CCO)sc[n+]1CC(=O)C(C)(C)C.[Br-]

- melting point: 243 to 244 °C (dec.)
Compound: Cc1sc[n+](CC(=O)c2cc(C(C)(C)C)c(O)c(C(C)(C)C)c2)c1C (as salt: bromide) [3-(2-(3′,5′-di-tert-butyl-4′-hydroxypheny].)-2-oxoethyl]-4,5-dimethyl-thiazolium bromide]

- IC50 [2]: 12600 µM
Compound: Cc1c[n+](CC(=O)c2ccccc2)cs1 [3-(2-phenyl-2-oxoethyl)-5-methyl-thiazolium bromide]

Compound: Cc1c(CCO)sc[n+]1CC(=O)c1ccccc1.[Br-] [3-(2-phenyl-2-oxoethyl)-4-methyl-5-(2-hydroxyethyl)-thiazolium bromide]
- Breaking Anti-AGE ([1]; at 30 mM): 67%
- Breaking Anti-BSA ([1]; at 30 mM): 13%
- IC50 [1, 3]: 14.3 mM
- IC50 [2]: > 10000 µM

Compound: COC(=O)C[n+]1ccsc1.[Br-] [3-(2-Methoxy-2-oxoethyl)-thiazolium bromide]
- Breaking Anti-AGE ([1]; at 30 mM): 38%
- Breaking Anti-BSA ([1]; at 30 mM): 41%
- IC50 [2]: 250 µM

Compound: Cc1c(CCO)sc[n+]1CC(=O)c1ccc2c(c1)OCCO2.[Br-] [3 (2-(1′,4′-benzodioxan-6-yl)-2-oxoethyl]-4-methyl-5-(2′-hydroxyethyl)-thiazolium bromide]
- Breaking Anti-AGE ([1]; at 3 mM): 11%
- Breaking Anti-BSA ([1]; at 3 mM): 21%
- Relative Cross-link Inhibition (at 10 mM) [2]: 13%

- Breaking Anti-AGE ([1]; at 10 mM): 24%
- Breaking Anti-BSA ([1]; at 10 mM): 18%
- IC50 [2]: 1760 µM
Compound: COC(=O)c1ccc(NC(=O)C[n+]2csc(CCO)c2C)cc1O [3-(2-(4′-carbmethoxy-3′-hydroxyanilino)-2-oxoethyl]-4-methyl-5-(2′-hydroxyethyl)-thiazolium bromide]

Compound: NC(=O)C[n+]1csc2ccccc21.[Br-] [3-(2-amino-2-oxoethyl)-benzothiazolium bromide]
- Breaking Anti-AGE ([1]; concentration not given): 77%
- Breaking Anti-BSA ([1]; concentration not given): 65%
- IC50 [1, 3]: 0.4 mM
- IC50 [1, 4]: 0.52 mM
- IC50 [2]: 20 µM

- IC50 [2]: 2920 µM
Compound: Cc1sc[n+](CC(=O)c2ccc(Br)cc2)c1C [3-(2-(4-bromophenyl]-2-oxoethyl)-4,5-dimethylthiazolium bromide]

Compound: CCN(CC)c1ccc(C(=O)C[n+]2csc(CCO)c2C)cc1 [3-(2-4′-diethylaminophenyl)-2-oxoethyl]-4-qj. methyl-5-(2′-hydroxyethyl)-thiazolinium bromide]
- IC50 [2]: 2800 µM

- melting point: 210 to 211 °C
Compound: Cc1c[n+](CC(=O)c2cc(C(C)(C)C)c(O)c(C(C)(C)C)c2)cs1 (as salt: bromide) [3-[2-(3′,5′-di-tert-butyl-4′-hydroxyphenyl)-2-oxoethyl)-5-methyl-thiazolium bromide]

Compound: Cc1c(CCOCc2c(Cl)cccc2Cl)sc[n+]1N.Cc1cc(C)c(S(=O)(=O)[O-])c(C)c1 [3-amino-4-methyl-5-(2(2′,6′-dichlorobenzyloxy)ethyl]-thiazolium mesitylenesulfonate]
- Breaking Anti-AGE ([1]; at 10 mM): 31%
- Breaking Anti-BSA ([1]; at 10 mM): 54%
- Relative Cross-link Inhibition ([2]; 3 mM): 26.5% (3 mm)

Compound: Cc1sc[n+](CC(N)=O)c1C.[Br-] [3-(2-amino-2-oxoethyl)-4,5-dimethyl-thiazolium bromide]
- Breaking Anti-AGE ([1]; at 30 mM): 61%
- Breaking Anti-BSA ([1]; at 30 mM): 16%
- IC50 [2]: 9900 µM
